Measured values reported in ChEMBL document CHEMBL1147687, “Identification and characterization of amino-piperidinequinolones and quinazolinones as MCHr1 antagonists” (Bioorg Med Chem Lett, 2006).
pIC50, pKi: −log10 of the molar value.

Target: T1, Melanin-concentrating hormone receptor 1 (Homo sapiens, UniProt Q99705)
Experiment: Displacement of [125I]MCH from MCHr1 expressed in IMR32 cells
Assay type: cell-based, IMR-32
Details: not given

T1 sequence (Q99705 whole entry): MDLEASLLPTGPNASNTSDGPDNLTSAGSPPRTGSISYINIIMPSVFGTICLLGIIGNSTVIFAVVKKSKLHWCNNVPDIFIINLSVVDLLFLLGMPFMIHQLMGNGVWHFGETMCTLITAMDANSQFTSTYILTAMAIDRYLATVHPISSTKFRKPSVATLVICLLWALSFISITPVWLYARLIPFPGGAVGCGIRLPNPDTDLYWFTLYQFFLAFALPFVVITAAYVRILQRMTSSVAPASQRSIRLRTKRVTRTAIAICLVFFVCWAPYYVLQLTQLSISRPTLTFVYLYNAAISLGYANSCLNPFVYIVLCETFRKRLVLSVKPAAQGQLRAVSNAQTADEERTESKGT

SMILES | pIC50
O=c1nc(NC2CCN(Cc3ccc4c(c3)OCO4)CC2)c2cc(Cl)ccc2n1CC(F)(F)F | 8.70
O=c1cc(NC2CCN(Cc3ccc4ccccc4c3)CC2)c2cc(Cl)ccc2n1Cc1ccccn1 | 9.05
Cn1c(=O)nc(NC2CCN(Cc3ccc4ncccc4c3)CC2)c2cc(Cl)ccc21 | 7.92
Cn1c(=O)cc(NC2CCN(C/C=C/c3ccccc3)CC2)c2cc(Cl)ccc21 | 8.00
O=c1cc(NC2CCN(Cc3ccc4c(c3)OCO4)CC2)c2cc(Cl)ccc2[nH]1 | 8.40
Cn1c(=O)c(C#N)c(NC2CCN(Cc3ccc4ccccc4c3)CC2)c2cc(Cl)ccc21 | 7.92
Cn1c(=O)nc(NC2CCN(Cc3ccc4c(c3)OCO4)CC2)c2cc(Cl)ccc21 | 8.30
O=c1nc(NC2CCN(Cc3ccc4ccccc4c3)CC2)c2cc(Cl)ccc2n1CC(F)(F)F | 8.30
Cn1c(=O)nc(NC2CC3CCC(C2)N3Cc2ccc3c(c2)OCO3)c2cc(Cl)ccc21 (stereo in doubt; 4g) | 8.05
Cn1c(=O)c(C#N)c(NC2CCN(Cc3ccc4c(c3)OCO4)CC2)c2cc(Cl)ccc21 | 7.62
Cn1c(=O)c(C(=O)N2CCCC2)c(NC2CCN(Cc3ccc4c(c3)OCO4)CC2)c2cc(Cl)ccc21 | 7.80
O=c1cc(NC2CCN(Cc3ccc4c(c3)OCO4)CC2)c2cc(Cl)ccc2n1Cc1ccccn1 | 8.92
Cn1c(=O)cc(NC2CCN(Cc3ccc4c(c3)OCO4)CC2)c2cc(OC(F)(F)F)ccc21 | 7.47
Cn1c(=O)nc(NC2CC3CCC(C2)N3Cc2ccc3c(c2)OCO3)c2cc(Cl)ccc21 (stereo in doubt; 4i) | 7.17
Cn1c(=O)cc(NC2CCN(Cc3ccc4ccccc4c3)CC2)c2cc(Cl)ccc21 | 8.30
O=c1cc(NC2CCN(Cc3ccc4c(c3)OCO4)CC2)c2cc(Cl)ccc2n1Cc1ccccc1 | 9.10
N#Cc1c(NC2CCN(Cc3ccc4c(c3)OCO4)CC2)c2cc(Cl)ccc2[nH]c1=O | 7.82
O=c1nc(NC2CC3CCC(C2)N3Cc2ccc3c(c2)OCO3)c2cc(Cl)ccc2n1CC(F)(F)F (stereo not drawn) | 8.40
COC(=O)c1c(NC2CCN(Cc3ccc4c(c3)OCO4)CC2)c2cc(Cl)ccc2n(C)c1=O | 7.01
Cn1c(=O)cc(NC2CCN(Cc3ccc4c(c3)OCO4)CC2)c2cc(OC(F)F)ccc21 | 8.30
Cn1c(=O)nc(NC2CCN(Cc3ccc4ccccc4c3)CC2)c2cc(Cl)ccc21 | 8.15
COc1ccc2c(c1)c(NC1CCN(Cc3ccc4c(c3)OCO4)CC1)cc(=O)n2C | 8.52
O=c1cc(NC2CCN(Cc3ccc4c(c3)OCO4)CC2)c2cc(Cl)ccc2n1Cc1ccncc1 | 8.96
CCCCCn1c(=O)nc(NC2CCN(Cc3ccc4c(c3)OCO4)CC2)c2cc(Cl)ccc21 | 7.92

Target: T1, Melanin-concentrating hormone receptor 1
Experiment: Inhibition of MCH-mediated calcium release in whole IMR32 cells by FLIPR
Assay type: functional, cell-based, IMR-32
Details: not given

SMILES | pIC50
O=c1nc(NC2CCN(Cc3ccc4c(c3)OCO4)CC2)c2cc(Cl)ccc2n1CC(F)(F)F | 7.54
O=c1cc(NC2CCN(Cc3ccc4ccccc4c3)CC2)c2cc(Cl)ccc2n1Cc1ccccn1 | 7.26
Cn1c(=O)nc(NC2CCN(Cc3ccc4ncccc4c3)CC2)c2cc(Cl)ccc21 | 7.18
Cn1c(=O)cc(NC2CCN(C/C=C/c3ccccc3)CC2)c2cc(Cl)ccc21 | 7.06
O=c1cc(NC2CCN(Cc3ccc4c(c3)OCO4)CC2)c2cc(Cl)ccc2[nH]1 | 7.59
Cn1c(=O)c(C#N)c(NC2CCN(Cc3ccc4ccccc4c3)CC2)c2cc(Cl)ccc21 | 6.71
Cn1c(=O)nc(NC2CCN(Cc3ccc4c(c3)OCO4)CC2)c2cc(Cl)ccc21 | 7.21
O=c1nc(NC2CCN(Cc3ccc4ccccc4c3)CC2)c2cc(Cl)ccc2n1CC(F)(F)F | 7.21
Cn1c(=O)nc(NC2CC3CCC(C2)N3Cc2ccc3c(c2)OCO3)c2cc(Cl)ccc21 (stereo in doubt; 4g) | 7.28
Cn1c(=O)c(C#N)c(NC2CCN(Cc3ccc4c(c3)OCO4)CC2)c2cc(Cl)ccc21 | 7.16
Cn1c(=O)c(C(=O)N2CCCC2)c(NC2CCN(Cc3ccc4c(c3)OCO4)CC2)c2cc(Cl)ccc21 | 7.28
O=c1cc(NC2CCN(Cc3ccc4c(c3)OCO4)CC2)c2cc(Cl)ccc2n1Cc1ccccn1 | 7.70
Cn1c(=O)cc(NC2CCN(Cc3ccc4c(c3)OCO4)CC2)c2cc(OC(F)(F)F)ccc21 | 6.98
Cn1c(=O)nc(NC2CC3CCC(C2)N3Cc2ccc3c(c2)OCO3)c2cc(Cl)ccc21 (stereo in doubt; 4i) | 6.87
Cn1c(=O)cc(NC2CCN(Cc3ccc4ccccc4c3)CC2)c2cc(Cl)ccc21 | 7.00
O=c1cc(NC2CCN(Cc3ccc4c(c3)OCO4)CC2)c2cc(Cl)ccc2n1Cc1ccccc1 | 7.38
N#Cc1c(NC2CCN(Cc3ccc4c(c3)OCO4)CC2)c2cc(Cl)ccc2[nH]c1=O | 7.70
O=c1nc(NC2CC3CCC(C2)N3Cc2ccc3c(c2)OCO3)c2cc(Cl)ccc2n1CC(F)(F)F (stereo not drawn) | 7.51
COC(=O)c1c(NC2CCN(Cc3ccc4c(c3)OCO4)CC2)c2cc(Cl)ccc2n(C)c1=O | 6.34
Cn1c(=O)cc(NC2CCN(Cc3ccc4c(c3)OCO4)CC2)c2cc(OC(F)F)ccc21 | 7.47
Cn1c(=O)nc(NC2CCN(Cc3ccc4ccccc4c3)CC2)c2cc(Cl)ccc21 | 7.14
COc1ccc2c(c1)c(NC1CCN(Cc3ccc4c(c3)OCO4)CC1)cc(=O)n2C | 7.70
O=c1cc(NC2CCN(Cc3ccc4c(c3)OCO4)CC2)c2cc(Cl)ccc2n1Cc1ccncc1 | 7.54
CCCCCn1c(=O)nc(NC2CCN(Cc3ccc4c(c3)OCO4)CC2)c2cc(Cl)ccc21 | 7.30

Target: Voltage-gated inwardly rectifying potassium channel KCNH2 (Homo sapiens, UniProt Q12809)
Experiment: Binding affinity to hERG stably transfected in HEK293 cells
Assay type: cell-based
Details: not given

Voltage-gated inwardly rectifying potassium channel KCNH2, sequence (Q12809 whole entry): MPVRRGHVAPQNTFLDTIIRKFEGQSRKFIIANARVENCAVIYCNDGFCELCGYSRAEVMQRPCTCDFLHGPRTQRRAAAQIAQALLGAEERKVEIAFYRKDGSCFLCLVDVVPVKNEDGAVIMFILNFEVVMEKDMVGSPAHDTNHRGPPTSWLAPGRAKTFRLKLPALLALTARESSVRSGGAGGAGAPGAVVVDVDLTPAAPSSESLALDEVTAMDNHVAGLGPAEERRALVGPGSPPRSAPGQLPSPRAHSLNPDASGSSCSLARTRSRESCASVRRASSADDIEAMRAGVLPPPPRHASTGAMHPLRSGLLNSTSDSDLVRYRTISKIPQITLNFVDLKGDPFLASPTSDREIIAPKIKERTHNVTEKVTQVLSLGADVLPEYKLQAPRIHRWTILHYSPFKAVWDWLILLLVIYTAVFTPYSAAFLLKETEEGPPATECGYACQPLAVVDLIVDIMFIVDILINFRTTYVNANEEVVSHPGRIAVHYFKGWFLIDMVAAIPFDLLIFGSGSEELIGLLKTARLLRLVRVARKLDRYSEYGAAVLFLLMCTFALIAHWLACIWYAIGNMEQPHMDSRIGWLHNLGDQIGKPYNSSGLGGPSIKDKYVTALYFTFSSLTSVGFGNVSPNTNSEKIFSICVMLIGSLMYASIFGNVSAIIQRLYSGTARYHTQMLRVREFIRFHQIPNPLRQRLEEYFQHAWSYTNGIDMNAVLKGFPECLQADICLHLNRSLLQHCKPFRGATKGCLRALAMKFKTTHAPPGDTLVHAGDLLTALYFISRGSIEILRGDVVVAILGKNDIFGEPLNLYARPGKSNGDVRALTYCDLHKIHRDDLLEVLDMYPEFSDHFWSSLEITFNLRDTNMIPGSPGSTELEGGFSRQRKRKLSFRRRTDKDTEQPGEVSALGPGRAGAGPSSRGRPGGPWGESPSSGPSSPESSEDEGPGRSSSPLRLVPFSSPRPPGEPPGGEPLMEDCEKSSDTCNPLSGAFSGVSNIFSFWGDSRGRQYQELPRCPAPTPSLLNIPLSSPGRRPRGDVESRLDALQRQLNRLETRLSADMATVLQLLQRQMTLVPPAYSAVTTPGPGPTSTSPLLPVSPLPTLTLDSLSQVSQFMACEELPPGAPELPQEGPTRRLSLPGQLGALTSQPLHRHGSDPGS

SMILES | pKi
O=c1nc(NC2CCN(Cc3ccc4c(c3)OCO4)CC2)c2cc(Cl)ccc2n1CC(F)(F)F | 6.35
O=c1cc(NC2CCN(Cc3ccc4ccccc4c3)CC2)c2cc(Cl)ccc2n1Cc1ccccn1 | 7.06
Cn1c(=O)cc(NC2CCN(C/C=C/c3ccccc3)CC2)c2cc(Cl)ccc21 | 7.52
Cn1c(=O)c(C#N)c(NC2CCN(Cc3ccc4ccccc4c3)CC2)c2cc(Cl)ccc21 | < 5.70
Cn1c(=O)nc(NC2CCN(Cc3ccc4c(c3)OCO4)CC2)c2cc(Cl)ccc21 | 6.82
O=c1nc(NC2CCN(Cc3ccc4ccccc4c3)CC2)c2cc(Cl)ccc2n1CC(F)(F)F | 6.82
Cn1c(=O)c(C(=O)N2CCCC2)c(NC2CCN(Cc3ccc4c(c3)OCO4)CC2)c2cc(Cl)ccc21 | < 5.70
O=c1cc(NC2CCN(Cc3ccc4c(c3)OCO4)CC2)c2cc(Cl)ccc2n1Cc1ccccn1 | 6.26
Cn1c(=O)cc(NC2CCN(Cc3ccc4c(c3)OCO4)CC2)c2cc(OC(F)(F)F)ccc21 | 5.74
Cn1c(=O)cc(NC2CCN(Cc3ccc4ccccc4c3)CC2)c2cc(Cl)ccc21 | 6.67
O=c1cc(NC2CCN(Cc3ccc4c(c3)OCO4)CC2)c2cc(Cl)ccc2n1Cc1ccccc1 | 6.55
N#Cc1c(NC2CCN(Cc3ccc4c(c3)OCO4)CC2)c2cc(Cl)ccc2[nH]c1=O | 6.38
O=c1nc(NC2CC3CCC(C2)N3Cc2ccc3c(c2)OCO3)c2cc(Cl)ccc2n1CC(F)(F)F (stereo not drawn) | 6.92
COC(=O)c1c(NC2CCN(Cc3ccc4c(c3)OCO4)CC2)c2cc(Cl)ccc2n(C)c1=O | 5.84
Cn1c(=O)cc(NC2CCN(Cc3ccc4c(c3)OCO4)CC2)c2cc(OC(F)F)ccc21 | < 5.70
Cn1c(=O)nc(NC2CCN(Cc3ccc4ccccc4c3)CC2)c2cc(Cl)ccc21 | 6.80
COc1ccc2c(c1)c(NC1CCN(Cc3ccc4c(c3)OCO4)CC1)cc(=O)n2C | 6.11
O=c1cc(NC2CCN(Cc3ccc4c(c3)OCO4)CC2)c2cc(Cl)ccc2n1Cc1ccncc1 | 6.45
CCCCCn1c(=O)nc(NC2CCN(Cc3ccc4c(c3)OCO4)CC2)c2cc(Cl)ccc21 | 6.87

System: not listed separately
Experiment: AUC in DIO mouse plasma at 10 mg/kg
Assay type: ADME, organism-based
Set-up: dose 10 mg/kg
Details: not given

SMILES | AUC [ng·h/mL]
Cn1c(=O)nc(NC2CCN(Cc3ccc4c(c3)OCO4)CC2)c2cc(Cl)ccc21 | 5100
Cn1c(=O)c(C#N)c(NC2CCN(Cc3ccc4c(c3)OCO4)CC2)c2cc(Cl)ccc21 | 5900
O=c1cc(NC2CCN(Cc3ccc4c(c3)OCO4)CC2)c2cc(Cl)ccc2n1Cc1ccncc1 | 2100

System: not listed separately
Experiment: AUC in DIO mouse brain at 10 mg/kg
Assay type: ADME, organism-based
Set-up: dose 10 mg/kg
Details: not given

SMILES | AUC [ng·h/mL]
Cn1c(=O)nc(NC2CCN(Cc3ccc4c(c3)OCO4)CC2)c2cc(Cl)ccc21 | 650
Cn1c(=O)c(C#N)c(NC2CCN(Cc3ccc4c(c3)OCO4)CC2)c2cc(Cl)ccc21 | 620
O=c1cc(NC2CCN(Cc3ccc4c(c3)OCO4)CC2)c2cc(Cl)ccc2n1Cc1ccncc1 | 730

System: not listed separately
Experiment: Plasma half life in DIO mouse at 10 mg/kg
Assay type: ADME, organism-based
Set-up: dose 10 mg/kg
Details: not given

SMILES | half-life [h]
Cn1c(=O)nc(NC2CCN(Cc3ccc4c(c3)OCO4)CC2)c2cc(Cl)ccc21 | 1.6
Cn1c(=O)c(C#N)c(NC2CCN(Cc3ccc4c(c3)OCO4)CC2)c2cc(Cl)ccc21 | 1.9
O=c1cc(NC2CCN(Cc3ccc4c(c3)OCO4)CC2)c2cc(Cl)ccc2n1Cc1ccncc1 | 2.3

System: not listed separately
Experiment: Half life in DIO mouse brain at 10 mg/kg
Assay type: ADME, organism-based
Set-up: dose 10 mg/kg
Details: not given

SMILES | half-life [h]
Cn1c(=O)nc(NC2CCN(Cc3ccc4c(c3)OCO4)CC2)c2cc(Cl)ccc21 | 1.9
Cn1c(=O)c(C#N)c(NC2CCN(Cc3ccc4c(c3)OCO4)CC2)c2cc(Cl)ccc21 | 2
O=c1cc(NC2CCN(Cc3ccc4c(c3)OCO4)CC2)c2cc(Cl)ccc2n1Cc1ccncc1 | 2.5

System: not listed separately
Experiment: Cmax in DIO mouse plasma at 10 mg/kg
Assay type: ADME, organism-based
Set-up: dose 10 mg/kg
Details: not given

SMILES | Cmax [ng/mL]
Cn1c(=O)nc(NC2CCN(Cc3ccc4c(c3)OCO4)CC2)c2cc(Cl)ccc21 | 2200
Cn1c(=O)c(C#N)c(NC2CCN(Cc3ccc4c(c3)OCO4)CC2)c2cc(Cl)ccc21 | 1600
O=c1cc(NC2CCN(Cc3ccc4c(c3)OCO4)CC2)c2cc(Cl)ccc2n1Cc1ccncc1 | 680

System: not listed separately
Experiment: Cmax in DIO mouse brain at 10 mg/kg
Assay type: ADME, organism-based
Set-up: dose 10 mg/kg
Details: not given

SMILES | Cmax [ng/mL]
Cn1c(=O)nc(NC2CCN(Cc3ccc4c(c3)OCO4)CC2)c2cc(Cl)ccc21 | 230
Cn1c(=O)c(C#N)c(NC2CCN(Cc3ccc4c(c3)OCO4)CC2)c2cc(Cl)ccc21 | 160
O=c1cc(NC2CCN(Cc3ccc4c(c3)OCO4)CC2)c2cc(Cl)ccc2n1Cc1ccncc1 | 200

System: not listed separately
Experiment: Brain to plasma AUC ratio in DIO mouse at 10 mg/kg
Assay type: ADME, organism-based
Set-up: dose 10 mg/kg
Details: read-out: Ratio AUC

SMILES | Kp
Cn1c(=O)nc(NC2CCN(Cc3ccc4c(c3)OCO4)CC2)c2cc(Cl)ccc21 | 0.13
Cn1c(=O)c(C#N)c(NC2CCN(Cc3ccc4c(c3)OCO4)CC2)c2cc(Cl)ccc21 | 0.11
O=c1cc(NC2CCN(Cc3ccc4c(c3)OCO4)CC2)c2cc(Cl)ccc2n1Cc1ccncc1 | 0.29
